Measured values taken from patent publication US20170008888A1 (KYORIN PHARMACEUTICAL CO., LTD., priority 2014, published 2017).

How the values were obtained:
[1] = system: human PBMCs; test: Human PBMC TNF-α response to endotoxin (ELISA); type: cell-based; conditions: 0.1 μg/ml LPS 16 h, read-out: EC50 for the inhibition of the human PBMC TNF-α response to endotoxin, ave. ± S.D.
Outline: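 PBMCs at 2e6 cells/ml in RPMI 1640 with 10% charcoal-dextran-treated FBS were pre-treated 1 h at 37 °C with compound (4-point 1:5 dilution from 10 μM). Stimulation with 0.1 μg/ml E. coli 0111:B4 LPS for 16 h; TNF-α measured by ELISA (A450) in 25-fold diluted supernatant.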

[2] = biological target: T1, TAO2 (Homo sapiens, UniProt Q9UL54); test: Probe-based (AX9989) kinase profiling in Jurkat lysate: TAO2; type: binding; conditions: read-out: Kinase inhibition % at indicated screening concentration: TAO2; for inhibition at 1 µM: screening concentration 1.0 μM; for inhibition at 0.1 µM: screening concentration 0.1 μM
T1 construct: screened for activity against several kinases in Jurkat cells; endogenous in cells; host or cells: Jurkat cell lysate
T1 sequence (Q9UL54 1-1235): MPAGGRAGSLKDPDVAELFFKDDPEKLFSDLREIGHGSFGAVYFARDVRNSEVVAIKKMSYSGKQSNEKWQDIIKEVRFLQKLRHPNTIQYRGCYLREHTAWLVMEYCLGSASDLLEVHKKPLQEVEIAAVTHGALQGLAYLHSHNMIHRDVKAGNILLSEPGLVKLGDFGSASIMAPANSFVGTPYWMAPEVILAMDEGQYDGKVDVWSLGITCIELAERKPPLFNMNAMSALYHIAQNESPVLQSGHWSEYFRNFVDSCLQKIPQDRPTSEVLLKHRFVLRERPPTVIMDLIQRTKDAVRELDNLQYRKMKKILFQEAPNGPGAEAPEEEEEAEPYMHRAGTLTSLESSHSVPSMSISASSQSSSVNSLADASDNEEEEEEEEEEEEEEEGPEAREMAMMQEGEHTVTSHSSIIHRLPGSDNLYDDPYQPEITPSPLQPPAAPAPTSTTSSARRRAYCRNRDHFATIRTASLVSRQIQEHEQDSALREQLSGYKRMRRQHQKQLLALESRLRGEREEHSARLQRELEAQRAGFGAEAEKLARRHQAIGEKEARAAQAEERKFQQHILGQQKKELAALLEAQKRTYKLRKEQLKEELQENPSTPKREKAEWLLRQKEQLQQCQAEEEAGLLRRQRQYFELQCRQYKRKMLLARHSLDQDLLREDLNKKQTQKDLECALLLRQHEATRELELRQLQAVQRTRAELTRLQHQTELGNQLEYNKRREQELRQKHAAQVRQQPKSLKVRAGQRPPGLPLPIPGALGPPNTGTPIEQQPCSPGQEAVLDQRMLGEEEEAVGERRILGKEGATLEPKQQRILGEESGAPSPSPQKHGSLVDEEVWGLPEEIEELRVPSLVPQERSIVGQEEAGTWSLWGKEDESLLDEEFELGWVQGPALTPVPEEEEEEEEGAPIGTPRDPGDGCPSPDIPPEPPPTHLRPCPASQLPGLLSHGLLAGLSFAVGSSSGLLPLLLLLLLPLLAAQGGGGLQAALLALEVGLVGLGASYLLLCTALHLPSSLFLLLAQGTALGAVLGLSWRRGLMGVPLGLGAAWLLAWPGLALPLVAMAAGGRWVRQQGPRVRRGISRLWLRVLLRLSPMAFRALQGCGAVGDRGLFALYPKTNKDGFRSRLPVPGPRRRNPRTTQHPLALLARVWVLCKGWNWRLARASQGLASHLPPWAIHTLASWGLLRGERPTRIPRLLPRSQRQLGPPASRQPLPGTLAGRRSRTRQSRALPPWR
Outline: (§1)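 Compounds were pre-incubated for 15 min at room temperature with gel-filtered Jurkat cell lysate supplemented with 20 mM MnCl2, after which the acyl phosphate ATP probe AX9989 was added at 5 μM final. Labeled active-site peptides were enriched after tryptic digestion and measured by LC/MS, with percent inhibition taken relative to samples without compound.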

[3] = biological target: T2, ACK (Homo sapiens, UniProt Q07912); test: Probe-based (AX9989) kinase profiling in Jurkat lysate: ACK; type: binding; conditions: read-out: Kinase inhibition % at indicated screening concentration: ACK; for inhibition at 1 µM: screening concentration 1.0 μM; for inhibition at 0.1 µM: screening concentration 0.1 μM
T2 construct: screened for activity against several kinases in Jurkat cells; endogenous in cells; host or cells: Jurkat cell lysate
T2 sequence (Q07912 whole entry): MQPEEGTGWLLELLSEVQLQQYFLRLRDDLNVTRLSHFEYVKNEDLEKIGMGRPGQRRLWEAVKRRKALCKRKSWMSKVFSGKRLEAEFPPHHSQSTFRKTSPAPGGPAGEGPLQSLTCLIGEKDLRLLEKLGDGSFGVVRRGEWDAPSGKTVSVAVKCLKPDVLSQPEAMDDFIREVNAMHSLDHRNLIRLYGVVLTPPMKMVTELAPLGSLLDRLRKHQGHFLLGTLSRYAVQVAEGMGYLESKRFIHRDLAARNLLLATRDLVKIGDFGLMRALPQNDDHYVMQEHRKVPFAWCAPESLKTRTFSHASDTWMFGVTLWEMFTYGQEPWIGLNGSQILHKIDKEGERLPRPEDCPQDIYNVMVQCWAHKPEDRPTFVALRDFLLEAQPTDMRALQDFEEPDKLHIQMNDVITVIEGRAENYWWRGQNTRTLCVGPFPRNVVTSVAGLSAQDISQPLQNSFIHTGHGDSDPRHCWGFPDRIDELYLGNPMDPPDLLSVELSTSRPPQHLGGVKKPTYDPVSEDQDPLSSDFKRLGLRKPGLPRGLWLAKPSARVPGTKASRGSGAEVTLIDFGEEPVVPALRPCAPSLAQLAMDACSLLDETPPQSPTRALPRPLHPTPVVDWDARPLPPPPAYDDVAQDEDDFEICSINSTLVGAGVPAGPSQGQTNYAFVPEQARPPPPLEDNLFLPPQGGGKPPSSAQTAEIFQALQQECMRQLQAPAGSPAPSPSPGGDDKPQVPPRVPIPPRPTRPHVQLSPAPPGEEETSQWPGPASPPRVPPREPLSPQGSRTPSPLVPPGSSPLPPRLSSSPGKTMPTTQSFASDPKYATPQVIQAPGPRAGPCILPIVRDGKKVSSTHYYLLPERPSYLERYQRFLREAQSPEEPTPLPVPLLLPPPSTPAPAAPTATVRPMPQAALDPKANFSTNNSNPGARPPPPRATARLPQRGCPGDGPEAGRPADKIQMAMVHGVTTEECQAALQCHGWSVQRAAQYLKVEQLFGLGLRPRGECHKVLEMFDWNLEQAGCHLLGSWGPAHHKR
Outline: as §1

[4] = system: ABL or ARG; test: Probe-based (AX9989) kinase profiling in Jurkat lysate: ABL or ARG; type: binding
Outline: as §1

Row | inhibition at 1 µM [2] [%] | inhibition at 1 µM [3] [%] | Kinase inhibition % at indicated screening concentration: ABL or ARG ([4]; screening concentration 1.0 μM) | inhibition at 0.1 µM [2] [%] | inhibition at 0.1 µM [3] [%] | Kinase inhibition % at indicated screening concentration: ABL or ARG ([4]; screening concentration 0.1 μM) | SMILES | EC50 [1] [nM]
1 | ≤ 35 | ≤ 35 | E (E is ≦35%) |  |  |  | CCOc1cc(C(=O)N2CCCCC2)ccc1Nc1cc2c(cn1)N(C)C(=O)c1ccccc1N2C [Compound 12] | 630
2 |  |  |  | ≤ 35 | ≤ 35 | E (E is ≦35%) | CCOc1cc(C(=O)N2CCC(N3CCCC3)C2)ccc1Nc1cc2c(cn1)N(C)C(=O)c1occc1N2C (stereo not shown) [Compound 15] | 490 ± 30
3 |  |  |  | ≤ 35 | ≤ 35 | E (E is ≦35%) | CCOc1cc(C(=O)N2CC[C@H](O)C2)ccc1Nc1cc2c(cn1)N(C)C(=O)c1occc1N2C [Compound 17] | 2230
4 |  |  |  | ≤ 35 | ≤ 35 | E (E is ≦35%) | C=CCN1CCN(C(=O)c2ccc(Nc3cc4c(cn3)N(C)C(=O)c3ccccc3N4C)c(OCC)c2)CC1 [Compound 21] | 1220
5 |  |  |  | ≤ 35 | ≤ 35 | E (E is ≦35%) | CCOc1cc(C(=O)N2CC[C@@H](N3CCCC3)C2)ccc1Nc1cc2c(cn1)N(C)C(=O)c1ccccc1N2C [Compound 24] | 910
6 |  |  |  | ≤ 35 | ≤ 35 | E (E is ≦35%) | CCOc1cc(C(=O)N2CC[C@@H](N(C)C)C2)ccc1Nc1cc2c(cn1)N(C)C(=O)c1occc1N2C [Compound 25] | 1170 ± 70
7 |  |  |  | ≤ 35 | ≤ 35 | E (E is ≦35%) | CCOc1cc(C(=O)N(C)CCN2CCCC2)ccc1Nc1cc2c(cn1)N(C)C(=O)c1ccccc1N2C [Compound 28] | 480
8 |  |  |  | ≤ 35 | ≤ 35 | E (E is ≦35%) | CCOc1cc(C(=O)N(C)CCn2ccnc2)ccc1Nc1cc2c(cn1)N(C)C(=O)c1ccccc1N2C [Compound 30] | 1260 ± 170
9 |  |  |  | ≤ 35 | ≤ 35 | E (E is ≦35%) | CCOc1cc(C(=O)N2CCNC[C@@H]2C)ccc1Nc1cc2c(cn1)N(C)C(=O)c1ccccc1N2C [Compound 31] | 1250
10 |  |  |  | ≤ 35 | ≤ 35 | E (E is ≦35%) | CCOc1cc(C(=O)N2CCN(CCO)CC2)ccc1Nc1cc2c(cn1)N(C)C(=O)c1ccccc1N2C [Compound 37] | 960
11 |  |  |  | ≤ 35 | ≤ 35 | E (E is ≦35%) | CCOc1cc(C(=O)N2CCN(C3CC3)CC2)ccc1Nc1cc2c(cn1)N(C)C(=O)c1ccccc1N2C [Compound 39] | 1770
12 | ≤ 35 | ≤ 35 | E (E is ≦35%) |  |  |  | CCOc1cc(C(=O)N2CCC(N3CCN(C)CC3)CC2)ccc1Nc1cc2c(cn1)N(C)C(=O)c1ncccc1N2C [Compound 40] | > 10000
13 | ≤ 35 | ≤ 35 | E (E is ≦35%) |  |  |  | CCOc1cc(C(=O)N(C)CCN(CC)CC)ccc1Nc1cc2c(cn1)N(C)C(=O)c1ccccc1N2C [Compound 42] | 650
14 |  |  |  | ≤ 35 | ≤ 35 | E (E is ≦35%) | CCOc1cc(C(=O)N2CCC(NC)C2)ccc1Nc1cc2c(cn1)N(C)C(=O)c1occc1N2C (stereo not shown) [Compound 43] | 1480
15 | ≤ 35 | ≤ 35 | E (E is ≦35%) |  |  |  | CCOc1cc(C(=O)NCCN2CCN(C)CC2)ccc1Nc1cc2c(cn1)N(C)C(=O)c1ccccc1N2C [Compound 44] | 590
16 | ≤ 35 | ≤ 35 | E (E is ≦35%) |  |  |  | CN1C(=O)c2ccccc2N(C)c2cc(N[C@H]3CC[C@H](NC4=NCCO4)CC3)ncc21 [Compound 45] | 1580
